{
  "source": "patent US7439063B2",
  "about": "“Neuroprotective synergy of erythropoietin and insulin-like growth factors” (Burnham Institute for Medical Research, priority 2002, dated 2008)",
  "key": {"caspase-3": {"tested_on": "caspase-3", "assay": "Caspase-3 (DEVD) cleavage assay in culture lysates", "type": "cell-based, rat", "conditions": "lysates 16 hours after NMDA exposure; simultaneous application or 3 hour preincubation", "protocol": "To study the effect of combined EPO/IGF-I treatment on proteolytic activity of caspase-3, protein lysates were prepared from cerebrocortical cultures 16 hours after NMDA exposure, and caspase-3 activity was assayed using the fluorescent caspase-3 substrate, DEVD-7-amino-4-trifluoromethyl-coumarin (DEVD-AFC).\nCaspase-3 (DEVD) cleavage assays were performed as described previously. Briefly, cerebrocortical cultures were lysed in cold buffer containing 10% sucrose, 0.1% CHAPS, 100 mM HEPES (pH 7.5), and 10 mM dithiothreitol (DTT). Cytoplasmic protein extracts (200 μg) were incubated for 30 minutes at 37° C. with 80 μM caspase-3 peptide substrate DEVD-AFC (Enzyme Systems Products; Livermore, Calif.). Free fluorescent AFC released by caspase-3 activity was measured on a FluoroMax2 fluorometer at 400 nm excitation and 505 nm emission."}, "[1]": {"tested_on": "rat primary cerebrocortical cultures", "protocol": "The neuroprotective effects of concurrent EPO and IGF-I administration were compared to individual treatment with EPO or IGF-I in rat primary cerebrocortical cultures.\nNeuronal apoptosis was quantified by double labeling for TUNEL reactivity, which in conjunction with condensed morphology is indicative of apoptosis, and the neuron-specific protein microtubule associated protein-2 (MAP2) 16 hours after NMDA insult.\nFor these experiments, mixed neuronal/glial cerebrocortical cultures were prepared as described previously (Bonfoco et al., supra, 1995); Lei et al., Neuron 8:1087-1099 (1992); and Lipton et al., Nature 364:626-632 (1993)). In brief, cortical tissue from embryonic day 16 Sprague-Dawley rats was dissociated in 0.5% trypsin and plated on poly-L-lysine coated glass coverslips at a density of 10^5 cells per 35 mm culture dish in serum-containing medium. Prior to experimental use, cerebrocortical neurons were kept at 37° C. and 5% CO2 for at least 17 days to permit full expression of NMDA receptors (Lei et al., supra, 1992; and Lipton et al., supra, 1993).\nEPO and IGF-I incubations were performed essentially as follows. Human recombinant EPO purchased from Amgen (Epoietin alfa, 2000 IU/ml) was diluted in cell culture medium to a final concentration of 5-10 U/ml. Insulin-like growth factor-I (IGF-I) (Calbiochem; La Jolla, Calif.) was diluted in cell culture medium to a final concentration of 50-100 ng/ml.\nNMDA incubations were performed as follows. Cerebrocortical cultures were exposed to 200 μM NMDA in nominally Mg^2+-free Earle's Balanced Salt Solution (EBSS), containing 1.8 mM CaCl2 and 5 μM glycine for 20 minutes. After NMDA exposure, cultures were washed with EBSS and then placed in conditioned tissue culture medium filtered with a […] Acrodisk filter (Perkin-Elmer; Wellesley, Mass.) to remove activated microglia. Where indicated, EPO, IGF-I or both EPO and IGF-I were added to the conditioned media.\nDetection of apoptotic neurons was performed essentially as follows. After experimental incubation, cerebrocortical cultures were fixed in PBS (150 mM NaCl, 1.7 mM monobasic sodium phosphate, 9.1 mM dibasic sodium phosphate) with 4% paraformaldehyde, and permeabilized in PBS containing 1% Tween-20. Apoptotic cells were identified by condensed morphology in conjunction with TUNEL using the Apoptosis Detection System (Promega; Madison, Wis.). […]\nFor PI3-kinase inhibition, cultures were prepared and incubated with NMDA alone, or with EPO or IGF-I individually, or EPO in combination with IGF-I, as described above. […] Neuronal apoptosis was assessed 16 hours after NMDA application by determining the percentage of MAP2-positive cells that were also TUNEL positive, as described above."}, "cerebrocortical neurons": {"tested_on": "cerebrocortical neurons", "conditions": "6, 12, 16 and 48 hours after NMDA exposure; mixed neuronal-glial cultures", "description": "The total number of viable MAP2 positive cells was assayed to avoid the effects of secondary necrosis seen at longer survival times (Bonfoco et al., supra, 1995).\nNeuronal survival was assayed as the total number of MAP2 positive cells to avoid the confounding effects of secondary necrosis, which can occur at later time points and obfuscate the number of apoptotic cells (Bonfoco et al., supra, 1995)."}, "Akt": {"tested_on": "Akt", "assay": "Akt phosphorylation on serine-473 (immunoblot)", "type": "cell-based, rat"}, "[2]": {"tested_on": "active caspase-3/XIAP complex", "assay": "XIAP associated with active caspase-3 (immunoprecipitation, densitometry)", "type": "cell-based, rat", "conditions": "NMDA exposure alone", "protocol": "In mixed cerebrocortical cultures, EPO is known to induce expression of XIAP and c-IAP, two related factors capable of inhibiting caspase-3 proteolytic activity (Digicaylioglu and Lipton, supra, 2001; and Holcik and Korneluk, Nat. Rev. Mol. Cell. Biol. 2:550-556 (2001)). Here, cerebrocortical cultures were analyzed for the effect of combined EPO and IGF-I treatment on association of XIAP and active caspase-3. Cultures were incubated with EPO, IGF-I and NMDA and, after immunoprecipitation of the active form of caspase-3, immunoprecipitates were probed for the presence of XIAP using western blotting.\nTo perform these experiments, cerebrocortical cultures were exposed to NMDA, or EPO and IGF-I, or concurrently exposed to NMDA and EPO/IGF-I as described above. Immunoprecipitation of culture lysates was performed using precleared whole-cell lysates, incubated with a 1:100 dilution of antibody specifically recognizing the cleaved form of caspase-3 (Cell Signaling Technologies) for one hour at room temperature, followed by addition of protein A/G-Sepharose beads and immunoprecipitation as described above. The immunoprecipitates were separated by electrophoresis and transferred to a nitrocellulose membrane, which was blotted with a 1:200 dilution of anti-XIAP antibody (Trevigen; Gaithersburg, Md.)."}, "erythropoietin receptor": {"biological_target": "T1, erythropoietin receptor (Homo sapiens, UniProt P19235)", "T1 sequence (P19235 25-249 limits assumed)": "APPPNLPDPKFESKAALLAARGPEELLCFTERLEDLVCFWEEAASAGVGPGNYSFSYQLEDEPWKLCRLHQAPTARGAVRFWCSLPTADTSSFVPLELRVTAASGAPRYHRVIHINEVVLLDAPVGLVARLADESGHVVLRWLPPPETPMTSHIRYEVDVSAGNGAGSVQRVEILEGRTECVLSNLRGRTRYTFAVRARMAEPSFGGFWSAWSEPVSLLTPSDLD", "conditions": "known erythropoietin mimetic peptides; cited from earlier work"}, "[3]": {"tested_on": "focal cerebral ischemic damage", "conditions": "administered intranasally; cited from earlier work"}, "[4]": {"tested_on": "p85 subunit of PI3-kinase", "assay": "phosphorylation of the p85 subunit of PI3-kinase (immunoblot)", "type": "cell-based, rat", "conditions": "IGF-I: maximal phosphorylation; EPO: phosphorylation observed; treated 10, 20 or 30 minutes", "protocol": "PI3-kinase is activated by phosphorylation of a p85 regulatory subunit, which leads to release of the catalytic subunit (Pleiman et al., Science 263:1609-1612 (1994)). To determine if EPO or IGF-I induces phosphorylation of the p85 subunit of PI3-kinase, rat cerebrocortical cultures were treated with EPO or IGF-I for 10, 20 or 30 minutes, and protein lysates from these cultures analyzed by immunoblotting for the presence of phospho-p85. As shown in FIG. 5B (upper and lower panels), both factors induced p85 phosphorylation in a time-dependent manner. […] Equal protein loading was confirmed by analyzing the amounts of total p85 with a second antibody.\nPreparation of total cell extracts for immunoblotting or immunoprecipitation was performed essentially as follows. Cultures were washed briefly in cold PBS. After addition of ice cold lysis buffer (50 mM Tris-Cl, 150 mM NaCl, 1.1 mM PMSF, 10 μg/ml Aprotinin, 1% Triton X-100, pH 8.0, 2 mM Ortho-Vanadate, 0.1% deoxycholate), cells were scraped off the culture dishes. Lysates were transferred to a microcentrifuge tube, vortexed for 15 seconds at 4° C., and cleared by centrifugation for 20 minutes at 14,000×g at […]. Protein concentrations were determined using a BCAProtein assay kit (Pierce; Rockford, Ill.).\nImmunoblotting was performed as follows. […]"}, "[5]": {"conditions": "naturally occurring peptide; cited from earlier work"}, "[6]": {"assay": "brain delivery of intranasally applied radiolabeled EPO (autoradiography)", "type": "in vivo", "text": "As disclosed herein, EPO or an active fragment or analog thereof can cross the blood-brain barrier following intranasal administration, whereby unwanted systemic effects such as increased hematocrit can be avoided."}},
  "note": "Like-named read-outs stand apart in the source and are kept apart here.",
  "data": [
    {"molecule": "CN[C@H](CC(=O)O)C(=O)O", "note": "[NMDA, N-methyl-D-aspartate]", "values": [
      {"measurement": "caspase-3-like activity (DEVD cleavage)", "setting": "caspase-3", "result": "increased DEVD cleavage"},
      {"measurement": "apoptotic appearance and TUNEL reactivity, % of MAP2-labeled neurons", "setting": "[1]; 200 μM NMDA for 20 minutes alone, 16 hours after NMDA insult", "result": "76+7%"},
      {"measurement": "number of surviving neurons in mixed cultures", "setting": "cerebrocortical neurons", "result": "dramatic decrease in the number of surviving neurons"},
      {"measurement": "constitutive levels of Akt phosphorylation", "setting": "Akt; 20-minute exposure to NMDA", "result": "reduced constitutive levels of Akt phosphorylation"},
      {"measurement": "amount of XIAP associated with active caspase-3, NMDA alone", "setting": "[2]", "result": "modest increase"}
    ]},
    {"molecule": "GGCRIGPITWVCGG [AF11154]", "values": [
      {"measurement": "IC50", "setting": "erythropoietin receptor", "result": 10000, "unit": "nM"}
    ]},
    {"molecule": "GGDYHCRMGPLTWVCKPLGG [EMP2]", "values": [
      {"measurement": "IC50", "setting": "erythropoietin receptor", "result": 200, "unit": "nM"}
    ]},
    {"molecule": "GGLYLCRFGPVTWDCGYKGG [EMP5]", "values": [
      {"measurement": "IC50", "setting": "erythropoietin receptor", "result": 1000, "unit": "nM"}
    ]},
    {"molecule": "GGTYSCHFGPLTWVCKPQGO [EMP1]", "values": [
      {"measurement": "IC50", "setting": "erythropoietin receptor", "result": 200, "unit": "nM"}
    ]},
    {"molecule": "GGVYACRMGPITWVCSPLGC [EMP3]", "values": [
      {"measurement": "IC50", "setting": "erythropoietin receptor", "result": 300, "unit": "nM"}
    ]},
    {"molecule": "IGF-I: Insulin-like growth factor-I (Calbiochem), also known as somatomedin C, a hormone of 70 amino acids", "values": [
      {"measurement": "cell death, treatment at the time of NMDA insult", "setting": "[1]; factor applied individually at the time of NMDA insult", "result": "did not significantly reduce cell death"},
      {"measurement": "neuronal viability in control incubations", "setting": "[1]; in the absence of NMDA exposure", "result": "did not affect neuronal viability"},
      {"measurement": "neuronal apoptosis after preincubation", "setting": "[1]; preincubation for three hours before NMDA, EPO 10 U/ml, IGF-I 100 ng/ml", "result": "significantly attenuated neuronal apoptosis"},
      {"measurement": "protection against focal cerebral ischemic damage", "setting": "[3]", "result": "can protect against focal cerebral ischemic damage"},
      {"measurement": "time to phosphorylation of p85 subunit of PI3-kinase", "setting": "[4]", "result": 10, "unit": "min"},
      {"measurement": "phospho-serine-473 Akt", "setting": "Akt; three hour incubation", "result": "moderate Akt activation"},
      {"measurement": "pI", "setting": "[5]", "result": 8.4}
    ]},
    {"molecule": "IGF-II: naturally occurring, relatively neutral peptide with 60% amino acid homology to native IGF-I", "values": [
      {"measurement": "pI", "setting": "[5]", "result": 6.4}
    ]},
    {"molecule": "VGNYMCHFGPITWVCRPGGG [EMP4]", "values": [
      {"measurement": "IC50", "setting": "erythropoietin receptor", "result": 500, "unit": "nM"}
    ]},
    {"molecule": "radiolabeled EPO: intranasally applied radiolabeled erythropoietin", "values": [
      {"measurement": "distribution after intranasal application", "setting": "[6]", "result": "migrated into olfactory tissue and was observed in the rostral migratory stream"},
      {"measurement": "distribution after intranasal application", "setting": "[6]; listed as radiolabeled erythropoietin", "result": "accumulated in brain tissue"}
    ]}
  ]
}
